According to publication PMC12527173, “Cytotoxic, anti-inflammatory, antioxidant, and anti-glyoxalase-I evaluation of chelating substances: In silico and in vitro study” (PLOS One, 2025):
Where two headings read alike, the source gives them in different places.

Columns and labels:
[1] = tested on: CACO2 colorectal cancer cell line; assay: SRB cytotoxicity assay, CACO2; format: cell-based; conditions: Homo sapiens, Caco-2, 72 h incubation, n = 12, read-out: Cytotoxicity (as of %Control) IC50 value CACO2
Experimental: (§1) The cancer cell lines were cultured in DMEM supplemented with 10% FBS (Bio Whittaker, Verviers, Belgium), HEPES Buffer (10 mM), gentamicin (50 µg/mL), L-glutamine (100 μg/mL), streptomycin ([…]), penicillin (100 µg/mL), and 4-(2-hydroxyethyl)-1-piperazineethanesulfonic acid (HEPES) Buffer (Sigma, St. Luis, MO, USA). The Sulforhodamine B used was obtained from Santa Cruz Biotechnology, Inc. in Texas, USA. […] Periodontal ligament fibroblasts (PDL) were utilized to assess specific cytotoxicity. Cancer cell lines that have survived offer several benefits. They provide a consistent and uninterrupted source of cells, so bypassing any ethical concerns related to the use of human tissue. Additionally, they are cost-effective. The cytotoxicity levels were assessed using the Sulforhodamine B (SRB) colorimetric assay, provided by Santa Cruz Biotechnology, Inc. in Texas, USA. The Spectro Scan 80D UV-VIS spectrophotometer, manufactured by Sedico Ltd. in Nicosia, Cyprus, was employed for this cytotoxicity screening. The cells were co-incubated with substances or a reference agent at various doses ranging from 5 to 200 μg/mL. […] The reduction in cell viability was analyzed by plotting Dose-response curves and expressing the data as a percentage of the control optical density. The IC50 values were obtained using regression analysis.

[2] = tested on: HCT116 colorectal cancer cell line; assay: SRB cytotoxicity assay, HCT116; format: cell-based; conditions: Homo sapiens, HCT-116, 72 h incubation, n = 12, read-out: Cytotoxicity (as of %Control) IC50 value HCT116
Experimental: as §1

[3] = SRB cytotoxicity assay, normal PDL fibroblasts; format: cell-based; conditions: normal periodontal ligament (PDL) fibroblasts, 72 h incubation, 0.1–200 µM range, read-out: Cytotoxicity (as of %Control) IC50 value PDL fibroblasts
Experimental: as §1

[4] = tested on: Human PC3 prostate cancer cell line; assay: SRB cytotoxicity assay, PC3; format: cell-based; conditions: 72 h incubation, n = 12, read-out: Cytotoxicity (as of %Control) IC50 value PC3 prostate malignancy
Experimental: as §1

[5] = tested on: PANC1 pancreatic cell line; assay: SRB cytotoxicity assay, PANC1; format: cell-based; conditions: Homo sapiens, PANC-1, 72 h incubation, n = 12, read-out: Cytotoxicity (as of %Control) IC50 value PANC1
Experimental: as §1

[6] = tested on: HeLa uterine cervix adenocarcinoma cell line; assay: SRB cytotoxicity assay, HeLa; format: cell-based; conditions: Homo sapiens, 72 h incubation, n = 12, read-out: Cytotoxicity (as of %Control) IC50 value Hela cervix malignancy
Experimental: as §1

[7] = DPPH free radical scavenger assay; conditions: DPPH radical scavenging; n = 12
From the text: This approach relies on the reduction of the radicals, which causes a change in colour from oxidized purple to reduced yellow. Primarily, Diphenyl-2-picryl-hydrazyl (DPPH) is reduced in a solution of methanol (MeOH) when a chemical that donates hydrogen is present. This reduction is due to the creation of the non-radical form DPPH-H. The alteration in colour can be precisely assessed by employing a spectrophotometer within the wavelength range of 515–520 nm. Unlike other assays for radical scavenging, the DPPH radical is stable and yields consistent spectroscopic data. A 0.2 mM DPPH solution was diluted with MeOH and then combined with treatment compounds and ascorbic acid in a 1:1 concentration ratio using a 96-well plate. […] The solution was then incubated for one hour, isolated from light. Subsequently, the alteration in absorbance at a wavelength of 517 nm was quantified using a microplate reader manufactured by Bio-Tek Instrument in the United States. Ascorbic acid served as a strong and traditional benchmark for comparing the effectiveness of radical scavenging agents. The DPPH radical scavenging activity inhibition was calculated using the following equation, where A denotes photometric absorbance: The formula to calculate the percentage difference between a control and a sample is: (A control – A sample)/ A control x 100% [71, 72].

[8] = tested on: A549 lung cancer cell line; assay: SRB cytotoxicity assay, A549; format: cell-based; conditions: Homo sapiens, 72 h incubation, n = 12, read-out: Cytotoxicity (as of %Control) IC50 value A549 lung malignancy
Experimental: as §1

[9] = tested on: SW620 colorectal cancer cell line; assay: SRB cytotoxicity assay, SW620; format: cell-based; conditions: Homo sapiens, SW-620, 72 h incubation, n = 12, read-out: Cytotoxicity (as of %Control) IC50 value SW620
Experimental: as §1

[10] = target: T1, human recombinant Glo-I enzyme (rhGlo-I) (Homo sapiens, UniProt Q04760); assay: Glyoxalase-I (Glo-I) enzyme inhibition assay; format: biochemical; conditions: for Maximum (descriptive statistics of enzyme inhibition): highest mean inhibition over the tested concentrations; for Maximum (descriptive statistics of enzyme inhibition) / Minimum (descriptive statistics of enzyme inhibition): in % (unit assumed); for Minimum (descriptive statistics of enzyme inhibition): lowest mean inhibition over the tested concentrations
T1 construct: N-terminal Met and 6-His tag (N); purchased R&D Systems; host or cells: E. coli
T1 sequence (Q04760 2-184 limits assumed): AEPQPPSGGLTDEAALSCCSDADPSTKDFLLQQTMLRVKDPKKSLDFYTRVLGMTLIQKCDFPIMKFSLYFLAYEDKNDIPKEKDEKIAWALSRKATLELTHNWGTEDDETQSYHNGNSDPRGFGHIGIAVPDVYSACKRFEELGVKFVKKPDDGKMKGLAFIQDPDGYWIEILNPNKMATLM
Experimental: Solvents and chemicals were procured from Sigma-Aldrich Co. and Acros (ThermoFisher Scientific, New Jersey, USA). […] The enzyme was obtained from R&D Systems® Corporation in the USA. Synthetic compounds were tested for their inhibitory effects on the enzyme using a 10 mM DMSO stock concentration in triplicates. The manufacturer’s protocol from R & D Systems, Inc. in Minneapolis, MN, USA was followed for the in vitro experiments. The reconstituted Glo-I enzyme (0.5 mg/mL) was thawed after being stored at −70°C in sterile deionized water. […] The monitoring was done at a wavelength of 240 nm for 200 seconds at 37°C. The substrate mixture was freshly concocted with a concentration of 100 mM glutathione and 100 mM methylglyoxal (MG) in assay buffer containing 0.5 M sodium phosphate dibasic/monobasic. It was then left undisturbed at room temperature for 15 minutes […]. The selected compounds for investigation are subsequently produced in testing concentration ranges using a 0.1 M solution of sodium phosphate dibasic/monobasic with a pH range of 7–7.2. The blank contained an assay buffer with MG substrate. The test compounds were combined with human recombinant Glo-I (50 µM) in a 96-well plate to determine their kinetic behavior.

[11] = read-out: Trial one (%inhibtion)
[12] = read-out: Trial three (%inhibtion)
[13] = read-out: Trial two (%inhibtion)

O=C1c2ccc(O)c(O)c2C(=O)c2c(O)ccc(O)c21 [Quinalizarin]
IC50 [1]: 109 ± 9.26 µM | IC50 [2]: 72.2 ± 5.7 µM | IC50 at 72 h [3]: > 200 µM | IC50 [4]: 143.1 ± 0.18 µM | IC50 [5]: 127 ± 2.52 µM | IC50 [6]: 85.51 ± 0.44 µM | IC50 [7]: 580 ± 26.5 µM | IC50 [8]: 7.9 ± 0.71 µM | IC50 [9]: 40.7 ± 2.21 µM | inhibition at 3.125 µM ([10]; 3.125 µM, read-out: Trial one (%inhibtion)): 22.8% | inhibition at 3.125 µM ([10]; 3.125 µM, read-out: Trial three (%inhibtion)): 28.6% | inhibition at 3.125 µM ([10]; 3.125 µM, read-out: Trial two (%inhibtion)): 19.5% | inhibition at 6.25 µM ([10]; 6.25 µM, read-out: Trial one (%inhibtion)): 32.6% | inhibition at 6.25 µM ([10]; 6.25 µM, read-out: Trial three (%inhibtion)): 33.7% | inhibition at 6.25 µM ([10]; 6.25 µM, read-out: Trial two (%inhibtion)): 28.6% | inhibition at 12.5 µM ([10]; 12.5 µM, read-out: Trial one (%inhibtion)): 37.2% | inhibition at 12.5 µM ([10]; 12.5 µM, read-out: Trial three (%inhibtion)): 41.8% | inhibition at 12.5 µM ([10]; 12.5 µM, read-out: Trial two (%inhibtion)): 35.4% | inhibition at 25 µM ([10]; 25 µM, read-out: Trial one (%inhibtion)): 42.7% | inhibition at 25 µM ([10]; 25 µM, read-out: Trial three (%inhibtion)): 43.6% | inhibition at 25 µM ([10]; 25 µM, read-out: Trial two (%inhibtion)): 46.6% | inhibition at 50 µM ([10]; 50 µM, read-out: Trial one (%inhibtion)): 55.5% | inhibition at 50 µM ([10]; 50 µM, read-out: Trial three (%inhibtion)): 55.3% | inhibition at 50 µM ([10]; 50 µM, read-out: Trial two (%inhibtion)): 59.9% | Maximum (descriptive statistics of enzyme inhibition) [10]: 56.90 | IC50 ([10]; human recombinant Glo-I, triplicates, read-out: IC50 µM ± SD): 33.4 ± 12.6 µM | Minimum (descriptive statistics of enzyme inhibition) [10]: 23.66

CC(C)=CC[C@@H](O)C1=CC(=O)c2c(O)ccc(O)c2C1=O [Shikonin]
IC50 [1]: 43.8 ± 4.97 µM | IC50 [2]: 108 ± 2.6 µM | IC50 at 72 h [3]: > 200 µM | IC50 [4]: 176.2 ± 1.25 µM | IC50 [5]: 80 ± 2.11 µM | IC50 [6]: 13.9 ± 1.91 µM | IC50 [7]: 34.4 ± 5.04 µM | IC50 [8]: 54 ± 5.8 µM | IC50 [9]: 60.3 ± 2.07 µM | IC50 [10]: 8.1 µM | Maximum (descriptive statistics of enzyme inhibition) [10]: 100.7 | Minimum (descriptive statistics of enzyme inhibition) [10]: 23.58 | inhibition at 3.125 µM [10, 11]: 16.9% | inhibition at 6.25 µM [10, 11]: 34.8% | inhibition at 12.5 µM [10, 11]: 59.4% | inhibition at 25 µM [10, 11]: 72.5% | inhibition at 50 µM [10, 11]: 104% | inhibition at 3.125 µM [10, 12]: 30% | inhibition at 6.25 µM [10, 12]: 51.3% | inhibition at 12.5 µM [10, 12]: 61% | inhibition at 25 µM [10, 12]: 73.9% | inhibition at 50 µM [10, 12]: 101% | inhibition at 3.125 µM [10, 13]: 23.8% | inhibition at 6.25 µM [10, 13]: 45.8% | inhibition at 12.5 µM [10, 13]: 65.1% | inhibition at 25 µM [10, 13]: 74.2% | inhibition at 50 µM [10, 13]: 96.9%
